Measurements reported in patent US7078522B2, “Pyridopyrimidine or naphthyridine derivative” (Tanabe Seiyaku Co., Ltd., priority 2001, dated 2006).

Structure (SMILES)	melting point [°C]
COc1ccc(Cn2c(=O)ccc3cnc(SC)nc32)cc1Cl [Example 24]	189 to 190
COc1ccc(Cn2c(=O)ccc3cnc(N)nc32)cc1Cl [Example 31]	234 to 242
COc1ccc(Cn2c(=O)ccc3cnc(N4CCc5ccccc5C4)nc32)cc1Cl [Example 23]	167 to 168
COc1ccc(Cn2c(=O)ccc3cnc(OCc4ccccn4)nc32)cc1Cl [Example 2, 2-(2-Pyridylmethoxy)-8-(3-chloro-4-methoxybenzyl)-7,8-dihyro-7-oxo-pyrido[2,3-d]pyrimidine]	130 to 131
COc1ccc(Cn2c(=O)ccc3cnc(N4CCn5ccnc5C4)nc32)cc1Cl [Example 32]	158 to 159
O=c1ccc2cnc(N3CCC[C@H]3CO)nc2n1Cc1ncccn1 [Example 19]	150 to 151
O=c1ccc2cnc(N3CCC[C@H]3CO)nc2n1Cc1ccncc1 [Example 20]	143 to 144
COc1ccc(Cn2c(=O)ccc3cnc(N4CCNCC4)nc32)cc1Cl [Example 28]	169.5 to 170
O=c1ccc2cnc(N3CCC[C@H]3CO)nc2[nH]1 [Example 15]	99 to 103
Cn1c(=O)ccc2cnc(N3CCC[C@H]3CO)nc21 [Example 3, (S)-2-(2-Hydroxymethyl-1-pyrrolidinyl)-8-N-mehyl-7,8-dihydro-7-oxo-pyrido[2,3-d]pyrimidine]	143 to 144
O=c1ccc2cnc(N3CCC[C@H]3CO)nc2n1Cc1ccc2c(c1)OCO2 [Example 18]	154 to 155
CN(C)CCn1c(=O)ccc2cnc(N3CCC[C@H]3CO)nc21 [Example 21]	102 to 104
COc1ccc(Cn2c(=O)ccc3cnc(N4CCc5cncnc5C4)nc32)cc1Cl [Example 29]	200 to 201
COc1ccc(Cn2c(=O)ccc3cnc(NCc4ncccn4)nc32)cc1Cl [Example 25]	172 to 173

Further lines, results first:

melting point [°C]	Structure (SMILES)
183.5 to 186.5	COc1ccc(Cn2c(=O)cc(-c3ccccn3)c3cnc(N4CCC[C@H]4CO)nc32)cc1Cl [Example 12, (S)-2-(2-Hydroxymethyl-1-pyrrolidinyl)-5-(2-pyridyl)-8-(3-chloro-4-methoxybenzyl)-7,8-dihydro-7-oxo-pyrido[2,3-d]pyrimidine]
142 to 145	COC(=O)c1c(-c2nccn2C)c2cnc(N3CCC[C@H]3CO)nc2n(Cc2ccc(OC)c(Cl)c2)c1=O [Example 13, (S)-2-(2-Hydroxymethyl-1-pyrrolidinyl)-5-(1-methyl-2-imidazolyl)-6-methoxycarbonyl-8-(3-chloro-4-methoxybenzyl)-7,8-dihydro-7-oxo-pyrido[2,3-d]pyrimidine]
207 to 210	COc1ccc(Cn2c(=O)c(C(=O)NCCO)cc3cnc(N4CCC[C@H]4CO)nc32)cc1Cl
139 to 141	COc1ccc(Cn2c(=O)ccc3cnc(N4CCC[C@@H]4CO)nc32)cc1Cl [Example 26]
258 to 264	COc1ccc(Cn2c(=O)c(C(=O)O)cc3cnc(N4CCC[C@H]4CO)nc32)cc1Cl [Example 33]
191 to 191.5	CNC(=O)c1cc2cnc(N3CCC[C@H]3CO)nc2n(Cc2ccc(OC)c(Cl)c2)c1=O
201 to 203	COC(=O)c1cc2cnc(N3CCCCC3)nc2n(Cc2ccc(OC)c(Cl)c2)c1=O [Example 22]
131 to 134	COc1ccc(Cn2c(=O)ccc3ccc(N4CCC[C@H]4CO)nc32)cc1Cl [Example 10, (S)-2-(2-Hydroxymethyl-1-pyrrolidinyl)-8-(3-chloro-4-methoxybenzyl)-7,8-dihydro-7-oxo-1,8-naphthyridine]
142 to 143	COc1ccc(Cn2c(=O)ccc3cnc(N4CCC[C@H]4CO)nc32)cc1Cl [Example 1, (S)-2-(2-Hydroxymethyl-1-pyrrolidinyl)-8-(3-chloro-4-methoxybenzyl)-7,8-dihydro-7-oxo-pyrido[2,3-d]pyrimidine]
132	COc1ccc(Cn2c(=O)ccc3cnc(N4CCC[C@H]4CO)nc32)cc1OC [Example 17]
207 to 209	COc1ccc(Cn2c(=O)ccc3cnc(N4CCOC(CO)C4)nc32)cc1Cl (stereo not shown) [Example 27]
135 to 136	COc1ccc(Cn2c(=O)ccc3cnc(N4CCC[C@H]4CO)nc32)cc1 [Example 16]
216 to 218	COc1ccc(Cn2c(=O)c(C(=O)NCc3ncccn3)cc3cnc(N4CCC[C@H]4CO)nc32)cc1Cl
199 to 201	COC(=O)c1cc2cnc(N3CCC[C@H]3CO)nc2n(Cc2ccccn2)c1=O [Example 42]
